pIC50, pKi: −log10 of the molar value. Where two headings read alike, the source gives them in different places.
What was measured:
full-length human Cal1 [1] = molecular target: T1, full-length human Cal1 (Homo sapiens (Human), UniProt P07384); assay: Calpain inhibition FRET assay; type: biochemical; conditions: for pIC50: Table 2, approximate IC50, read-out: Cal I IC50
Protocol: Calpain activity was measured using full-length human Cal1 in the presence of a FRET substrate. IC50 values were approximated by co-incubation of varying concentrations of the appropriate inhibitor (10, 100, 500, 1000 nM) in the presence of the FRET substrate (DABCYL)TPLK-SPPSPR-(EDANS) (SEQ ID NO: 5) and activation buffer. […] A peptide inhibitor, Z-LLY-FMK (SEQ ID NO: 6), was used as a positive control.
The Calbiochem InnoZyme activity kit was used for measuring the inhibition effect inhibitors on human erythrocyte calpain 1 activity. […] 20 μM of the FRET substrate, 10 nM of native Cal1, and 20 μM TCEP (reducing agent) were added to the reaction mixture containing assay buffer (Tris [10 mM], NaCl [100 mM], pH 7.4). Cal1 was activated by the addition of 10 μM calcium. Cleavage of the scissile bond amide bond, K-S, releases the fluorophore (EDANS) from the internal quenching molecule (DABCYL), resulting in an increase in fluorescence measured at 320 nm excitation and 480 nm emission wave lengths for 30 min. Each inhibitor was added to the reaction mixture at varying concentrations (10 nM, 100 nM, 1 μM, and 10 μM) to detect inhibition of Cal1 and reduction in fluorescence was measured by 96 well-plate reader. Approximate IC50 values of each compound were generated using linear regression within Graphpad Prism Software.

full-length human Cal1 [2] = molecular target: T1, full-length human Cal1; assay: Calpain inhibition FRET assay; type: biochemical; conditions: Table 3, 20 min incubation, FRET substrate
Cal1cat vs CathB = assay: Competition assay for Cal1 vs CathB using the biotinylated epoxide probe; type: binding, rat; conditions: individually and in combination
Protocol: Anti-biotin western blotting of Cal1cat (Lane 6) or CathB (Lane 7) after incubation with 27 show the expected immunoreactivity of the covalently modified proteins. […] Densitometric analysis, using means from triplicate immunoblots, was used to estimate the modification of each protein by 27 in the presence of inhibitors relative to control (Lane 1: ratio=1.0).
Cal1cat was used in place of the full length enzyme to avoid autocatalysis.
Cal1cat and CathB were pre-treated with inhibitors for 10 min, followed by a 20 min incubation with the biotinylated epoxide, 27, as illustrated in FIG. 4. […] A more quantitative estimate of selectivity was achieved by comparison of band intensities.
The appropriate inhibitor (5 μM) was pre-incubated in a mixture containing Cal1cat (2 μM), CathB (2 μM), TCEP (1 mM), and Ca^2+ (30 μM) for 10 min at 37° C. […] (5 μM) was then added and the mixture incubated an additional 20 min. The reaction was quenched with EDTA (10 μM) and samples were ran using 4-16% SDS PAGE gel, subsequently transferred to PVDF membrane and visualized by Pierce ECL (Enhanced chemiluminescent) western blotting substrate, intensity of each blot was calculated using densitometry software. Relative inhibition of each enzyme was calculated with respect to enzyme activity in the absence of inhibitor. Inhibitor preference to Cal1cat with respect to CathB, was calculated by dividing relative Cal1cat inhibition with relative CathB inhibition of that particular inhibitor.

papain = papain (Carica papaya (Papaya), UniProt P00784); assay: biochemical; type: biochemical
Sequence of papain (P00784 134-345): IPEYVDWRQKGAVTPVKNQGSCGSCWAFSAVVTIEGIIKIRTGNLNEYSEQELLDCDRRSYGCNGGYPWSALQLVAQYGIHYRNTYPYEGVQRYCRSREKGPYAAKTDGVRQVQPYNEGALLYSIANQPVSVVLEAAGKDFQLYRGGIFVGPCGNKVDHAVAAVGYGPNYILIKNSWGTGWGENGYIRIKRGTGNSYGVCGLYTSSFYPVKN
Description: (§1) Papain is representative of a family of typically lysosomal or secreted cysteine proteases, including the human cathepsins (B, C, F, H, K, L1-2, O, S, W, Z). […] Several methods have been reported in the literature for detailed kinetic analysis of the irreversible inhibition of cysteine proteases, including Cal1. […] (SEQ ID NO: 8). Using this substrate, kinetic parameters were derived using the method of Davies and co-workers, whereby “progress curves” were initially obtained measuring product formation as a function of time and fitted to y=P∞*(1−e^(−k*x)) (FIG. 7) (Cuerrier, D. et al., J Biol Chem 2007, 282, 9600-11; herein incorporated by reference in its entirety). […] Kinetic parameters (ki, KI, ki/KI) were obtained from double reciprocal plots (FIG. 7).
(§2) Full length porcine calpain (156 nM), or papain (236 pM) was added to a solution of 100 mM NaCl, 50 mM HEPES, pH 7.6, 1 mM TCEP, 30 μM Suc-LLVY-AMC (SEQ ID NO: 8) substrate, and inhibitor (0.5 to 50 μM). Calpain reactions also contained CaCl2 (1 mM and 100 mM for porcine and rat respectively). Both substrate and inhibitors were dissolved in acetonitrile/DMSO (1:1) with the exception of E-64, dissolved in water. Organic solvent remained <2% in all reactions, and most often <1%. Reactions were carried out in microtiter 96-well plates, with 150 μL per well, 30° C., and product formation was monitored over time by fluorescence (Ex/Em 346/444 nm, with 420 nm cutoff filter). Kinetic values of kobs were determined via non-linear regression using one-phase association analysis and linear plots of 1/kobs vs. 1/[I] provided kinetic constants ki and KI.

[3] = molecular target: Full length porcine calpain (Sus scrofa (Pig), UniProt P35750); assay: Calpain inhibition kinetics studies (Suc-LLVY-AMC substrate); type: biochemical
Sequence of Full length porcine calpain (P35750 whole entry): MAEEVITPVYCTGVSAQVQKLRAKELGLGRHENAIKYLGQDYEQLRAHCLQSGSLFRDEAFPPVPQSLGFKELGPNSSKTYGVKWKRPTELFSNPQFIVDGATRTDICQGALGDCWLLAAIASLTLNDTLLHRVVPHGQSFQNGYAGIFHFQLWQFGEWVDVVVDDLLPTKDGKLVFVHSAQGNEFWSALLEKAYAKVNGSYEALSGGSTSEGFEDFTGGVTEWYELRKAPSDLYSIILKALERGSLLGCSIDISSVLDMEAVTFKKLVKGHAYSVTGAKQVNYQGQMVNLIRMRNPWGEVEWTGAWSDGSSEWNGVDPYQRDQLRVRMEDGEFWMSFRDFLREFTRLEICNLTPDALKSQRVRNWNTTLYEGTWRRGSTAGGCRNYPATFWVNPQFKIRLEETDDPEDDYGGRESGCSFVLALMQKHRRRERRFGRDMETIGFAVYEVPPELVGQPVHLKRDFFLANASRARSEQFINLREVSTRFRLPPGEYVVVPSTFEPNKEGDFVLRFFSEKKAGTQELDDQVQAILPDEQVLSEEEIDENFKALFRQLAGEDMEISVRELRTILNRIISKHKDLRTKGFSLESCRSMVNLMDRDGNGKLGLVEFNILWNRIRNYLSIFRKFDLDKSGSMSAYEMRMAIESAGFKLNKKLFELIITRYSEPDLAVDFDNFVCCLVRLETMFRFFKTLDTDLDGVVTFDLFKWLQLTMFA
Sequence of Full length porcine calpain (P04574 whole entry partner): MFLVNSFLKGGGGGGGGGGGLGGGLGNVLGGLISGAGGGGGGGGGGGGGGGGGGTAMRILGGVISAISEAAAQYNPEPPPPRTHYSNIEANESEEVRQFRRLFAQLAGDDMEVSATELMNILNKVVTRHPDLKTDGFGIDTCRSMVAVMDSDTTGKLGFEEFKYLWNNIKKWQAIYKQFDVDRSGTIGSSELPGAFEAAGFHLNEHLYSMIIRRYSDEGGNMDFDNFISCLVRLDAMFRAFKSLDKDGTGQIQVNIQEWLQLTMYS
Description: as §1, §2

[4] = system: Aβ-induced LTP impairment; assay: LTP rescue test; conditions: assessed at 650 nM
Protocol: Residual levels of potentiation were averaged during the last 5 min of LTP.

APP/PS1 mice = assay: Behavioral rescue assays (contextual fear memory, 2-day RAWM reference memory); type: in vivo
Description: APP/PS1-vehicle: n=15; APP/PS1-67: n=6; APP/PS1-30a: n=10; WT-vehicle: n=15; WT-67=5; WT-30a: n=8, APP/PS1-33: n=11; WT-33: n=8, APP/PS1-50: n=10; WT-50: n=8. P<0.05 in all transgenic groups treated with compound compared to their respective vehicle-treated transgenics.
APP/PS1-vehicle: n=17; APP/PS1-67: n=9; APP/PS1-30a: n=10; WT-vehicle: n=18; WT-67=9; WT-30a: n=9, APP/PS1-33: n=10; WT-33: n=9, APP/PS1-50: n=11; WT-50: n=9.
The ability of compounds to rescue the defects in associative and reference memory in 3 month old APP/PS1 animals was assessed. Capability of ameliorating the defects in contextual fear memory was tested via i.p. administration (FIG. 12). In the 2-day RAWM test, daily injections of the 67, 30a, 33 and 50 from the 2nd month of age were beneficial against the loss of contextual fear memory and reference memory.
Impact of chronic treatment on against memory loss in older APP/PS1 mice (7 months of age) with a more severe plaque load was also investigated. Compounds 67, 33 and 50 were beneficial against memory impairment following chronic administration (FIG. 13).
The ability of a prodrug to rescue the defects in associative and reference memory in 3 month old APP/PS1 animals was assessed. […] Thus, the esterification seems to improve PK but it spoils PD parameters. Compound 89 ameliorates both LTP and memory in 3 month old APP/PS1 mice (FIG. 15). Daily treatment with 89 from the age of 2 months until 3 months ameliorated the defect in LTP (A) contextual fear memory (B) and reference memory (C) in APP/PS1 mice. n=10 for all groups. P<0.05 in transgenics treated with compound compared to their respective vehicle-treated transgenics.

[5] = ki/Ki calculated relative to E-64
[6] = mean ± S.D. of triplicate experiments
[7] = >1: inhibition not quantifiable at 1 μM
[8] = APP/PS1 mice, daily treatment from 2 until 7 months

T1 sequence (P07384 whole entry): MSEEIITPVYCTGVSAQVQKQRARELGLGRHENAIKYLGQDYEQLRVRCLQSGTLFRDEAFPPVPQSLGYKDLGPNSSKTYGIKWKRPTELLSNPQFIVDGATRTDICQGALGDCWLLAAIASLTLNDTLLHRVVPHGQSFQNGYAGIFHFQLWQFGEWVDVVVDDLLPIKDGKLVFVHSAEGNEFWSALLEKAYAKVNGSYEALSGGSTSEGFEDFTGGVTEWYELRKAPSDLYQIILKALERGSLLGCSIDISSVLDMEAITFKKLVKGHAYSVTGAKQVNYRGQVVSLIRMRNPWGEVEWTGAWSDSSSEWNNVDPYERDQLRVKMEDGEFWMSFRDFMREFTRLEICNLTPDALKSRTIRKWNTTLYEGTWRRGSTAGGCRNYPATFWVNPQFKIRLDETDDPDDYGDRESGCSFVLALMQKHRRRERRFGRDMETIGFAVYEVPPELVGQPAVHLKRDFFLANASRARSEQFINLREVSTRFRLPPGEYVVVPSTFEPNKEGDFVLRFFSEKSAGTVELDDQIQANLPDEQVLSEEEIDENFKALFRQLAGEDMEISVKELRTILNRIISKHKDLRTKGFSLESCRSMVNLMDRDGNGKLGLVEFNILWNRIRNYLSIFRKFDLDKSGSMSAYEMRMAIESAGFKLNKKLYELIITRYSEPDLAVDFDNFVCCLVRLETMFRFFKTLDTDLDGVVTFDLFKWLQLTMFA
T1 sequence (P04632 whole entry partner): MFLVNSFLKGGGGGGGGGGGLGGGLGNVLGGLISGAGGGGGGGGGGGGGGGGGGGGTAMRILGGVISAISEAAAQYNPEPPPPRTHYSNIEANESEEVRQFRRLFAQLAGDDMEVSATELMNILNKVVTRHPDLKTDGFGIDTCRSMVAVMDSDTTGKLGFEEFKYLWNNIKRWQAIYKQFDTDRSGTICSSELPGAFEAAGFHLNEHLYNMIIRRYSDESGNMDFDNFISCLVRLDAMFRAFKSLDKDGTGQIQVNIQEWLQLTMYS

## CC(C)C[C@H](NC(=O)[C@H]1O[C@@H]1C(=O)O)C(=O)NCCCCNC(=O)CCCC[C@@H]1SC[C@@H]2NC(=O)N[C@@H]21 [Compound 27, (2S,3S)-3-((S)-4-methyl-1-oxo-1-(4-(5-((3aS,4S,6aR)-2-oxohexahydro-1H-thieno[3,4-d]imidazol-4-yl)pentanamido)butylamino)pentan-2-ylcarbamoyl)oxirane-2-carboxylic acid]
full-length human Cal1 [1]
  Cal1 inhibition (in words): shown to be a Cal1 inhibitor
  pIC50: 6.82
full-length human Cal1 [2]
  pIC50: 7.00
Cal1cat vs CathB
  covalent modification of Cal1 and CathB (anti-biotin immunoblotting): covalently modify both Cal1 and CathB

## C#Cc1ccc(-c2csc(NC(=O)[C@H](Cc3cscn3)NC(=O)[C@H]3O[C@@H]3C(=O)O)n2)cc1 [Compound 34, (2S,3S)-3-((S)-1-(4-(4-ethynylphenyl)thiazol-2-ylamino)-1-oxo-3-(thiazol-4-yl)propan-2-ylcarbamoyl)oxirane-2-carboxylic acid]
papain; apparent equilibrium constant, read-out: K1 Papain
  pKi: 5.01
papain; inhibition rate
  ki Papain: 21.6 s⁻¹
papain; [5]
  rel Papain: 0.40
papain; [6]
  10^−5 × ki/Ki Papain: 22.3 ± 0.24
full-length human Cal1 [2]
  pIC50: 7.00
[3]; Cal1 over papain, ki/Ki relative to E-64 set at 1.0
  Relative Selectivity: 3.3
[3]; apparent equilibrium constant, full length Cal1, read-out: K1 Calpain1
  pKi: 5.46
[3]; inhibition rate, full length Cal1
  ki Calpain1: 0.14 s⁻¹
[3]; ki/Ki as measure, compared with E-64
  relative selectivity for inhibition of Cal1 over papain (in words): Cal1 selectivity
[3]; [5]
  rel Calpain1: 1.3
[3]; [6]
  10^−4 × ki/Ki Calpain1: 3.89 ± 0.41

## Cn1cnc(C[C@H](NC(=O)[C@H]2O[C@@H]2C(=O)O)C(=O)Nc2nc(-c3ccc(F)cc3)cs2)c1 [Compound 36, (2S,3S)-3-((S)-1-(4-(4-fluorophenyl)thiazol-2-ylamino)-3-(1-methyl-1H-imidazol-4-yl)-1-oxopropan-2-ylcarbamoyl)oxirane-2-carboxylic acid]
full-length human Cal1 [2]
  pIC50: 6.65
[4]
  potency for LTP rescue compared with E64: did not surpass

## O=C(NCc1cn(-c2ccc(Br)cc2)nn1)[C@H](Cc1cscn1)NC(=O)[C@H]1O[C@@H]1C(=O)O [Compound 55, (2S,3S)-3-((S)-1-((1-(4-bromophenyl)-1H-1,2,3-triazol-4-yl)methylamino)-1-oxo-3-(thiazol-4-yl)propan-2-ylcarbamoyl)oxirane-2-carboxylic acid]
full-length human Cal1 [1]
  Cal1 inhibition (in words): potent activity
  pIC50: 7.40
[4]
  potency for LTP rescue compared with E64: did not surpass

## O=C(NCc1cn(-c2ccc([N+](=O)[O-])cc2)nn1)[C@H](Cc1cscn1)NC(=O)[C@H]1O[C@@H]1C(=O)O [Compound 56, (2S,3S)-3-((S)-1-((1-(4-nitrophenyl)-1H-1,2,3-triazol-4-yl)methylamino)-1-oxo-3-(thiazol-4-yl)propan-2-ylcarbamoyl)oxirane-2-carboxylic acid]
full-length human Cal1 [1]
  Cal1 inhibition (in words): potent activity
full-length human Cal1 [2]
  pIC50: 6.52

## O=C(NCc1cn(-c2c(F)cccc2F)nn1)[C@H](Cc1cscn1)NC(=O)[C@H]1O[C@@H]1C(=O)O [Compound 57, (2S,3S)-3-((S)-1-((1-(2,6-difluorophenyl)-1H-1,2,3-triazol-4-yl)methylamino)-1-oxo-3-(thiazol-4-yl)propan-2-ylcarbamoyl)oxirane-2-carboxylic acid]
full-length human Cal1 [1]
  Cal1 inhibition (in words): relatively high IC50 values
  pIC50: < 6.00
full-length human Cal1 [2]; [7]
  pIC50: < 6.00

## Cc1cc(C)c(-n2cc(CNC(=O)[C@H](Cc3cscn3)NC(=O)[C@H]3O[C@@H]3C(=O)O)nn2)c(C)c1 [Compound 58, (2S,3S)-3-((S)-1-((1-mesityl-1H-1,2,3-triazol-4-yl)methylamino)-1-oxo-3-(thiazol-4-yl)propan-2-ylcarbamoyl)oxirane-2-carboxylic acid]
full-length human Cal1 [1]
  Cal1 inhibition (in words): relatively high IC50 values
  pIC50: < 6.00
full-length human Cal1 [2]; [7]
  pIC50: < 6.00

## O=C(O)[C@H]1O[C@@H]1C(=O)NC1(C(=O)NCCCCNS(=O)(=O)c2ccc(F)cc2)CCCCC1 [Compound 66]
full-length human Cal1 [1]
  pIC50: 6.00
[4]
  potency for LTP rescue compared with E64: surpassed E64

## CC(C)C[C@H](NC(=O)[C@H]1O[C@@H]1C(=O)O)C(=O)NCCCCNC(=O)CCCCC1CCSS1 (stereo partly shown) [Compound 67]
full-length human Cal1 [1]
  pIC50: 6.82
[4]
  potency for LTP rescue compared with E64: surpassed E64
APP/PS1 mice; 3 month old APP/PS1 mice, 2-day RAWM, daily from 2 months
  reference memory: beneficial
APP/PS1 mice; 3 month old APP/PS1 mice, daily i.p. from 2 months
  contextual fear memory: beneficial
APP/PS1 mice; 7 month old APP/PS1 mice, chronic administration
  memory impairment: beneficial
APP/PS1 mice; [8]
  contextual fear memory: ameliorated
  reference memory: not significant

— patent US9403843B2, “Cysteine protease inhibitors and uses thereof” (The Trustees of Columbia University in the City of New York, priority 2012, dated 2016)
